Results on 3 molecules are retold here after patent US10928398B2, “Method for double staining colocalized nuclear-markers in histological lymphoid or bone marrow tissue sample” (CORNELL UNIVERSITY, priority 2008, dated 2021).

One assay relates to relapsed MM. The assay can be described thus: Time to progression of relapsed MM patients receiving high-dose Dex in prospective clinical trials. In kind it is in vivo, human. The text has this: High-dose pulsed dexamethasone (Dex) is one of the preferred treatments for relapsed MM patients and is currently the accepted gold standard against which investigational drugs are being tested. The predictors of outcome for relapsed patients while on Dexamthasone (Dex) treatment have not been well established. These predictors were prospectively evaluated using the Ki-67/MUM1 markers in patients with relapsed MM receiving Dex in consecutive, prospective clinical trials. Time to progression is defined as date of Dex initiation to date of progressive disease (PD). Sixteen patients with relapsed MM were evaluated.

For assay [1], the system named is Rb phosphorylation by Cdk4/6 at serine 807/811 (pS807/811Rb) in lymphoma cells. The assay can be described thus: Double IHC PAX5/pS807/811Rb with image analysis of lymph node biopsies of a B cell lymphoma patient in a phase I trial. Format: in vivo, human. The note with it: day 21 of therapy, 84.08% before treatment. The text has this: (§1) The double stained IHC slides were accessioned into the image analysis system and then loaded onto the machine in batches of 60. A robotic arm picked up each slide, one at a time, and loaded it onto the microscope. Via a motorized stage, the microscope moves and scans the slide, looking for tissue, the location of which varies slightly from slide to slide. Once it has found the tissue, the device scans the tissue and the camera records low resolution images. Using the scanned low resolution images, the inventor selected ten good areas for subsequent high resolution scanning and analysis. Numerous data points were then calculated for each of the ten areas per slide, and those data were averaged.
(§2) Since no counterstain was used in these slides, all identifiable cells are positive for at least one marker (e.g., in FIG. 3A, cells that express neither MUM1 nor pSRb are not visible). The characteristics used for the analysis (“classifiers”) were determined by a process whereby the inventor trained the software what was considered to be cells of each color. The software analyzed the high resolution images by first applying color parameters to decide if a nucleus was blue, red, or purple. It finds pixels within the appropriate range of color parameters as defined by hue, saturation, and intensity; objects too light or too dark, as determined by the classifiers, were not included in the analysis. […]

In assay [2] the test system is Ki67 expression in lymphoma cells. The assay can be described thus: Double IHC PAX5/Ki67 with image analysis of lymph node biopsies of a B cell lymphoma patient in a phase I trial. In kind it is in vivo, human. To be noted: day 21 of therapy, 97.52% prior to treatment.
Description: as §1, §2

The test system of assay [3] is MM cells (MUM1 positive) expressing Ki67 or pSRb. In words: Double IHC MUM1/Ki67 or MUM1/pSRb of bone marrow biopsies of multiple myeloma patients in a phase I/II trial. In kind it is in vivo, human. To be noted: for Effect on cycling of MM cells (Ki67, pSRb): MM patient bone marrow, after treatment for 8 days. As for the experimental part:
In hematopoietic cancer biopsies, the non-cancer hematopoietic and immune cells must be excluded. In this example, multiple myeloma (MM) cells were identified in biopsy samples with an anti-MUM1 antibody and a detection system yielding a red signal. Specificity of MUM1 for myeloma cells in MM biopsies is estimated at ˜99%, thus excluding non-MM cells from the analysis. Double IHC was performed to detect cell cycle molecules in situ in MM cells. Each slide was stained for MUM1 (above) using Bond™ Polymer AP Red Detection System (DS9305, Leica, Bannockburn, Ill.) to afford a red pigment, and for the cell cycle molecule with Blue Alkaline Phosphate Substrate Kit (Vector Laboratories, Burlingame, Calif.) to afford a blue pigment. The cell cycle molecules, including Ki67 and pSRb, are nuclear. With these particular chromogen systems, double staining yielded MM cells with either a red nuclear signal if the cell was not proliferating or a purple nuclear signal if the MM cells were proliferating (positive for the cell cycle molecule in question). Cells with a blue nuclear signal ([…]) were non MM cells (FIG. 3A) that were proliferating.
To compute the percentage of MM cells expressing various cell cycle molecules, purple (MUM1+/cell cycle molecule+) cells were manually counted as a percentage of purple cells plus red (MUM1+/cell cycle molecule negative) cells. This manual method of analysis can be performed with any standard microscope.
To increase the accuracy, the same slides were first loaded in batches of 60 into an image analysis system, which performs photographic digital scans of each slide. Using an automatic image analyzer, the number of cells with a purple nucleus and those with a red nucleus in a given area was determined. The counts were performed in triplicate. The percentage of MM cells in the proliferative stage represented by the cell cycle molecule targeted is the number of purple cells divided by the number of purple and red cells. […] The intensity of positive staining was scored in comparison to expression in B cells from serial sections of a single tonsil control slide, run in parallel with the marrow slides. […]
IHC was performed on 4 micron sections of paraffin-embedded bone marrow tissues using a Leica Microsystems (Bannockburn, Ill.) Bond Max automated immunostainer. MUM1 MM cells were detected using an anti-MUM1 mouse monoclonal antibody (Mab) (Dako, Carpinteria, Calif.) and the Bond™ Polymer AP Red Detection System (Leica). Simultaneous expression of other proteins was detected with monoclonal antibodies to Ki-67, cyclin D1, cyclin D2, cyclin D3, MCM2, MCM7, skp2, p16, p18, p21, p27, Rb, c-myc, Cdk4 and Cdk6 and polyclonal rabbit antisera to either pSer^807/811, pSer^608 or pSer^780 of human Rb. […]

Another assay concerns Myeloma. The note with it: cited from earlier work.

Regarding `C[C@@H]1C[C@H]2[C@@H]3CCC4=CC(=O)C=C[C@]4(C)[C@@]3(F)[C@@H](O)C[C@]2(C)[C@@]1(O)C(=O)CO` [Dex, dexamethasone], the “Patients showing progressive disease” value in the assay with relapsed MM (16 patients with relapsed MM, n=9) amounted to 56%. The “Median time to progressive disease” value in the assay on relapsed MM (patients with progressive disease, from Dex initiation) was found to be 87 days.

For `CC(=O)c1c(C)c2cnc(Nc3ccc(N4CCNCC4)cn3)nc2n(C2CCCC2)c1=O` [PD-332991], the “pS807/811Rb found in % of lymphoma cells” value in assay [1] is recorded as 2.14%. Also, in assay [2], the “Ki67 expression in % of lymphoma cells” value is reported as 23.13%. In addition, the “MM patients showing similar efficacy” value in assay [3] (11/11 MM patients) is listed as 100%. Further, the “Effect on cycling of MM cells (Ki67, pSRb)” value in assay [3] was “great efficacy”; in assay [3] (listed as CDk4/6 inhibitor), “no longer cycling”. Also, in assay [3] (biopsies 6 days after cessation of drug administration), the “Cycling of MM cells after cessation of drug” value is “returned to cycling in percentages comparable to what was observed prior to treatment”.

For `CC(C)C[C@H](NC(=O)[C@H](Cc1ccccc1)NC(=O)c1cnccn1)B(O)O` [PS-341(bortezomib), bortezomib], the “Responsiveness, % of patients” value in the assay with Myeloma is 30%.
